Measured values as given in paper PMC8246065 (The EMBO Journal, 2021).

Tests used:
NOD1∆CARD = target: T1, NOD1∆CARD (Homo sapiens, UniProt Q9Y239); test: MST with cell lysates expressing NOD1 mutants; format: binding; conditions: Fig EV5D
T1 sequence (Q9Y239 196-953 limits assumed): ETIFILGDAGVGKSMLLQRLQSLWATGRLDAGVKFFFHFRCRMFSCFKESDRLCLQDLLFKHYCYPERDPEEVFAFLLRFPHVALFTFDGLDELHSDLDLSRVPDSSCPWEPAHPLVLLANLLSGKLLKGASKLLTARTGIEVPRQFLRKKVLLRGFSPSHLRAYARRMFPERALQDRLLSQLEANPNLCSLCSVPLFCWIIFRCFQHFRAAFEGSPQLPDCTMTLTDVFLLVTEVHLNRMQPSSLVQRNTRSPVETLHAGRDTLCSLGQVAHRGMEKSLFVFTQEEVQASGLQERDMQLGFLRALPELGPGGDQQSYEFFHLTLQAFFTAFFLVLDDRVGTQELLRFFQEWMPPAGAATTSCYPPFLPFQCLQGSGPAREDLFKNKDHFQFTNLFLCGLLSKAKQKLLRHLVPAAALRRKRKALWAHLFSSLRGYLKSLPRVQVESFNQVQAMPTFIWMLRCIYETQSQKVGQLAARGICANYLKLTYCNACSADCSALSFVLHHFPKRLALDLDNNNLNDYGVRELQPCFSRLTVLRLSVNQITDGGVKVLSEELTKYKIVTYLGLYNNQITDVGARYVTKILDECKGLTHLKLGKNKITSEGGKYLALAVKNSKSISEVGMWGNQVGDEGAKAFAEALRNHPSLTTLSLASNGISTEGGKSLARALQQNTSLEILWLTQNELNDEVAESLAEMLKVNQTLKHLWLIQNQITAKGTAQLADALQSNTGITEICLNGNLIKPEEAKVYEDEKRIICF
Experimental: (§1) Binding of NOD1, NOD2, GFP, or NLRP3‐GFP to different ligands was measured by microscale thermophoresis (MST). 20 nM GFP or GFP‐tagged proteins in MST buffer (PBS pH 7.4, containing 0.5% NP‐40 and 10 mM DTT) was incubated with different concentrations of ligands. Immediately, samples were loaded into standard glass capillaries (NanoTemper) and thermophoresis analysis was performed on a NanoTemper Monolith NT.115 instrument (40% LED, 80% MST power) at 22°C. A laser on‐time of 30 s and a laser off‐time of 5 s were used. The experiment was performed in triplicates, and the MST curves were fitted using NT analysis software to obtain the K d values.

NOD1∆LRR = target: T2, NOD1∆LRR (Homo sapiens, UniProt Q9Y239); test: MST with cell lysates expressing NOD1 mutants; format: binding; conditions: Fig EV5D
T2 sequence (Q9Y239 1-531 limits assumed): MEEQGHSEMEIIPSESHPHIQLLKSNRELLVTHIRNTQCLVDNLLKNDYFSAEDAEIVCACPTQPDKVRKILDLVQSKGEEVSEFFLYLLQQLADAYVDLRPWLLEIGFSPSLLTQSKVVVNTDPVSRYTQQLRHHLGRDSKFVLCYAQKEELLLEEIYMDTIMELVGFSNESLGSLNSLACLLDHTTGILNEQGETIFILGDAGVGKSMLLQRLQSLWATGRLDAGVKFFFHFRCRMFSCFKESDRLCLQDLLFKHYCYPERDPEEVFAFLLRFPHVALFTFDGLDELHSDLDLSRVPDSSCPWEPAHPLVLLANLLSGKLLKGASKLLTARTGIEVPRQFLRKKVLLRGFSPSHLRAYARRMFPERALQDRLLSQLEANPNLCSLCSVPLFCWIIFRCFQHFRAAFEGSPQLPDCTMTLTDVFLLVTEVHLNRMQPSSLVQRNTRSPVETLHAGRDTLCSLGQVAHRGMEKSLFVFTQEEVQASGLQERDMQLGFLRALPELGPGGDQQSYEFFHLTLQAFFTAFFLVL
Experimental: as §1

Interaction with NOD1∆CARD by MST (NOD1∆CARD): still interacted | Interaction with NOD1∆LRR by MST (NOD1∆LRR): still interacted
Structure (SMILES): CCCCCCCCCCCCC/C=C/[C@@H](O)[C@@H](N)COP(=O)(O)O [S1P, sphingosine‐1‐phosphate]
